Values joined by “and” are separate entries in the source; they are usually repeats but may differ in a detail not shown here. Identical values can stand only once. Numbers after ± are expanded uncertainties.
Key:
[1] = molar enthalpy of transition or fusion; details: Crystal, DSC
[2] = Molar enthalpy of transition or fusion; details: Crystal; DSC
[3] = molar heat capacity at constant pressure; details: 101.33 kPa, Crystal, Flow calorimetry
[4] = molar enthalpy of vaporization or sublimation

O=C(O)c1cc(Br)ccc1Br [2,5-dibromobenzoic acid]
Details | vapor or sublimation pressure [kPa]
346.8 K, Crystal, Torsion effusion method | 4.7e-05 ± 2.1e-05
348.6 K, Crystal, Torsion effusion method | 5.7e-05 ± 2.2e-05
350 K, Crystal, Torsion effusion method | 7.6e-05 ± 2.3e-05
350.2 K, Crystal, Torsion effusion method | 7.6e-05 ± 2.3e-05
352.2 K, Crystal, Torsion effusion method | 9.5e-05 ± 2.3e-05
353 K, Crystal, Torsion effusion method | 0.000114 ± 2.5e-05
353.5 K, Crystal, Torsion effusion method | 0.000114 ± 2.5e-05
353.6 K, Crystal, Torsion effusion method | 0.000114 ± 2.5e-05
354.3 K, Crystal, Torsion effusion method | 0.000133 ± 2.8e-05
354.8 K, Crystal, Torsion effusion method | 0.000133 ± 3.1e-05
356.1 K, Crystal, Torsion effusion method | 0.000171 ± 3.1e-05
356.2 K, Crystal, Torsion effusion method | 0.000152 ± 3e-05
356.8 K, Crystal, Torsion effusion method | 0.000171 ± 3e-05
357.3 K, Crystal, Torsion effusion method | 0.000189 ± 3.8e-05
357.8 K, Crystal, Torsion effusion method | 0.000208 ± 3.8e-05
358.3 K, Crystal, Torsion effusion method | 0.000208 ± 2.9e-05
359.2 K, Crystal, Torsion effusion method | 0.000246 ± 3.1e-05
359.6 K, Crystal, Torsion effusion method | 0.000227 ± 3.7e-05
360.2 K, Crystal, Torsion effusion method | 0.000246 ± 3.6e-05
360.4 K, Crystal, Torsion effusion method | 0.000265 ± 3.3e-05
361.5 K, Crystal, Torsion effusion method | 0.000303 ± 5e-05
361.7 K, Crystal, Torsion effusion method | 0.000303 ± 4.9e-05
362.4 K, Crystal, Torsion effusion method | 0.00036 ± 4.4e-05
362.5 K, Crystal, Torsion effusion method | 0.000322 ± 4.2e-05
363 K, Crystal, Torsion effusion method | 0.000379 ± 7e-05
363.8 K, Crystal, Torsion effusion method | 0.000388 ± 5.5e-05
364.6 K, Crystal, Torsion effusion method | 0.000493 ± 4.4e-05
364.7 K, Crystal, Torsion effusion method | 0.000474 ± 4.5e-05
365.6 K, Crystal, Torsion effusion method | 0.000474 ± 6.7e-05
366.2 K, Crystal, Torsion effusion method | 0.000493 ± 5.5e-05
367.3 K, Crystal, Torsion effusion method | 0.000606 ± 0.0001
367.6 K, Crystal, Torsion effusion method | 0.000701 ± 0.0001
367.7 K, Crystal, Torsion effusion method | 0.000682 ± 0.0001
369.1 K, Crystal, Torsion effusion method | 0.000777 ± 7e-05
369.7 K, Crystal, Torsion effusion method | 0.000834 ± 0.0001
370.5 K, Crystal, Torsion effusion method | 0.000853 ± 0.00011
370.7 K, Crystal, Torsion effusion method | 0.000947 ± 0.00011
371.2 K, Crystal, Torsion effusion method | 0.001023 ± 0.00011
372.3 K, Crystal, Torsion effusion method | 0.001099 ± 9.4e-05
373 K, Crystal, Torsion effusion method | 0.001175 ± 0.00013
373.5 K, Crystal, Torsion effusion method | 0.001213 ± 0.00015
373.7 K, Crystal, Torsion effusion method | 0.00127 ± 0.00014
375.4 K, Crystal, Torsion effusion method | 0.001516 ± 0.00021
376.8 K, Crystal, Torsion effusion method | 0.001914 ± 0.00029
376.9 K, Crystal, Torsion effusion method | 0.001762 ± 0.00018
440.2 K, Liquid, non-isothermal thermogravimetric | 0.643 ± 0.11
440.5 K, Liquid, non-isothermal thermogravimetric | 0.663 ± 0.091
441.3 K, Liquid, non-isothermal thermogravimetric | 0.731 ± 0.094
442.1 K, Liquid, non-isothermal thermogravimetric | 0.732 ± 0.095
443.1 K, Liquid, isothermal thermogravimetric | 0.819 ± 0.06
444 K, Liquid, isothermal thermogravimetric | 0.821 ± 0.092
444.1 K, Liquid, isothermal thermogravimetric | 0.835 ± 0.09
444.1 K, Liquid, non-isothermal thermogravimetric | 0.844 ± 0.098
444.6 K, Liquid, non-isothermal thermogravimetric | 0.841 ± 0.092
444.8 K, Liquid, isothermal thermogravimetric | 0.822 ± 0.082
445.4 K, Liquid, non-isothermal thermogravimetric | 0.919 ± 0.092
446.3 K, Liquid, non-isothermal thermogravimetric | 0.924 ± 0.096
447 K, Liquid, isothermal thermogravimetric | 1.031 ± 0.087
448.1 K, Liquid, isothermal thermogravimetric | 1.01 ± 0.091
448.3 K, Liquid, isothermal thermogravimetric | 1.044 ± 0.089
448.3 K, Liquid, non-isothermal thermogravimetric | 1.04 ± 0.1
448.7 K, Liquid, isothermal thermogravimetric | 1.012 ± 0.089
448.8 K, Liquid, non-isothermal thermogravimetric | 1.066 ± 0.1
449.2 K, Liquid, non-isothermal thermogravimetric | 1.146 ± 0.1
450.1 K, Liquid, non-isothermal thermogravimetric | 1.151 ± 0.11
451.2 K, Liquid, isothermal thermogravimetric | 1.291 ± 0.11
452 K, Liquid, non-isothermal thermogravimetric | 1.302 ± 0.12
452.1 K, Liquid, isothermal thermogravimetric | 1.259 ± 0.11
452.3 K, Liquid, isothermal thermogravimetric | 1.306 ± 0.1
452.9 K, Liquid, isothermal thermogravimetric | 1.282 ± 0.1
452.9 K, Liquid, non-isothermal thermogravimetric | 1.335 ± 0.1
453.1 K, Liquid, non-isothermal thermogravimetric | 1.404 ± 0.099
454.2 K, Liquid, non-isothermal thermogravimetric | 1.429 ± 0.098
455.1 K, Liquid, isothermal thermogravimetric | 1.608 ± 0.11
456.1 K, Liquid, isothermal thermogravimetric | 1.617 ± 0.12
456.2 K, Liquid, isothermal thermogravimetric | 1.573 ± 0.11
456.3 K, Liquid, non-isothermal thermogravimetric | 1.578 ± 0.11
456.7 K, Liquid, non-isothermal thermogravimetric | 1.622 ± 0.11
456.8 K, Liquid, isothermal thermogravimetric | 1.602 ± 0.11
457.1 K, Liquid, non-isothermal thermogravimetric | 1.739 ± 0.12
458.2 K, Liquid, non-isothermal thermogravimetric | 1.752 ± 0.1
459.3 K, Liquid, isothermal thermogravimetric | 1.974 ± 0.1
460 K, Liquid, isothermal thermogravimetric | 1.91 ± 0.14
460.1 K, Liquid, non-isothermal thermogravimetric | 1.931 ± 0.14
460.3 K, Liquid, isothermal thermogravimetric | 1.994 ± 0.14
460.6 K, Liquid, non-isothermal thermogravimetric | 1.967 ± 0.12
461 K, Liquid, isothermal thermogravimetric | 1.945 ± 0.13
461.2 K, Liquid, non-isothermal thermogravimetric | 2.111 ± 0.14
462.1 K, Liquid, non-isothermal thermogravimetric | 2.123 ± 0.14
463.1 K, Liquid, isothermal thermogravimetric | 2.39 ± 0.14
464.1 K, Liquid, isothermal thermogravimetric | 2.401 ± 0.17
464.2 K, Liquid, non-isothermal thermogravimetric | 2.396 ± 0.17
464.3 K, Liquid, isothermal thermogravimetric | 2.319 ± 0.15
464.8 K, Liquid, isothermal thermogravimetric | 2.362 ± 0.14
464.8 K, Liquid, non-isothermal thermogravimetric | 2.456 ± 0.15
465.4 K, Liquid, non-isothermal thermogravimetric | 2.637 ± 0.14
466.2 K, Liquid, non-isothermal thermogravimetric | 2.643 ± 0.15
467 K, Liquid, isothermal thermogravimetric | 2.886 ± 0.19
467.1 K, Liquid, isothermal thermogravimetric | 2.776 ± 0.18
468.1 K, Liquid, non-isothermal thermogravimetric | 2.879 ± 0.15
468.2 K, Liquid, isothermal thermogravimetric | 2.931 ± 0.15
468.5 K, Liquid, non-isothermal thermogravimetric | 2.897 ± 0.14
468.7 K, Liquid, isothermal thermogravimetric | 2.855 ± 0.078

Details | Normal melting temperature [°C] | molar enthalpy of transition or fusion [kJ/mol] | molar heat capacity at constant pressure
Crystal, DTA | 155 ± 0.5 | – | –
[1], 298.15 K | – | 132 ± 6.5 | –
[1], 428 K | – | 128 ± 4.7 | –
[3], 288.2 K | – | – | 216 ± 0.9 J/K/mol and 215.9 ± 0.9 J/K/mol
[3], 290.2 K | – | – | 217.4 ± 1 J/K/mol and 217.6 ± 1 J/K/mol and 217.5 ± 1 J/K/mol
[3], 292.2 K | – | – | 219.4 ± 1 J/K/mol and 219.3 ± 1 J/K/mol
[3], 294.2 K | – | – | 220.4 ± 0.8 J/K/mol and 220.6 ± 0.8 J/K/mol and 220.5 ± 0.8 J/K/mol
[3], 296.2 K | – | – | 221.5 ± 0.8 J/K/mol and 221.4 ± 0.8 J/K/mol and 221.7 ± 0.8 J/K/mol
[3], 298.2 K | – | – | 222.9 ± 0.9 J/K/mol and 223 ± 0.9 J/K/mol and 223.1 ± 0.9 J/K/mol
[3], 300.2 K | – | – | 224.7 ± 0.9 J/K/mol and 224.8 ± 0.9 J/K/mol
[3], 302.2 K | – | – | 225.9 ± 0.8 J/K/mol and 225.6 ± 0.8 J/K/mol and 225.8 ± 0.8 J/K/mol
[3], 304.2 K | – | – | 227 ± 0.9 J/K/mol and 227.3 ± 0.9 J/K/mol and 227.1 ± 0.9 J/K/mol
[3], 306.2 K | – | – | 228.3 ± 0.9 J/K/mol and 228.4 ± 0.9 J/K/mol and 228.5 ± 0.9 J/K/mol
[3], 308.2 K | – | – | 229.8 ± 1 J/K/mol and 229.6 ± 1 J/K/mol
[3], 310.2 K | – | – | 231.7 ± 0.9 J/K/mol and 231.6 ± 0.9 J/K/mol and 231.5 ± 0.9 J/K/mol
[3], 312.2 K | – | – | 232.5 ± 0.8 J/K/mol and 232.4 ± 0.8 J/K/mol and 232.3 ± 0.8 J/K/mol
[3], 314.2 K | – | – | 234 ± 0.9 J/K/mol and 233.9 ± 0.9 J/K/mol and 234.1 ± 0.9 J/K/mol
[3], 316.2 K | – | – | 235.3 ± 0.9 J/K/mol and 235.2 ± 0.9 J/K/mol
[3], 318.2 K | – | – | 237 ± 0.9 J/K/mol and 236.8 ± 0.9 J/K/mol and 236.9 ± 0.9 J/K/mol
[3], 320.2 K | – | – | 238.4 ± 0.7 J/K/mol and 238.5 ± 0.7 J/K/mol and 238.3 ± 0.7 J/K/mol
[3], 322.2 K | – | – | 239.1 ± 0.8 J/K/mol and 239 ± 0.8 J/K/mol
[3], 324.2 K | – | – | 240.7 ± 1 J/K/mol and 240.5 ± 1 J/K/mol and 240.4 ± 1 J/K/mol
[3], 326.2 K | – | – | 242.4 ± 1 J/K/mol and 242.1 ± 0.9 J/K/mol and 242.3 ± 1 J/K/mol

Details | Molar enthalpy of transition or fusion [kJ/mol]
[2] | 36.7 ± 3.7

[4]
Details | molar enthalpy [kJ/mol]
298.15 K, Crystal, Torsion-effucion | 134 ± 2
428 K, Liquid, DSC | 92.7 ± 2.9
